We go through 29 compounds from US20230049231A1 (priority 2019, published 2023).

Test [1] deals with T1, Kv1.3 potassium channel (Homo sapiens, UniProt P22001).
T1 construct: expressed in transfected cells
Briefly: Kv1.3 potassium channel blocker activity, automated whole-cell patch clamp (Patchliner). The format is cell-based. Summed up: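 IC50 came from Hill-equation fits of peak and AUC currents from the final pulse at each concentration, normalized to compound-free control. Compounds applied consecutively at 30 nM to 100 μM (up to 0.3% DMSO) to Kv1.3-expressing CHO-K1 cells, P/4 leak subtraction. Pulses were +40 mV, 100 ms, from −90 mV holding, at 0.1 Hz on Patchliner.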

Test [2] addresses T2, hERG channel (Homo sapiens, UniProt Q12809).
T2 construct: expressed in transfected cells
The test can be described thus: hERG electrophysiology, automated whole-cell patch clamp (Patchliner). The format is cell-based. Summed up: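 Automated whole-cell patch clamp on CHO-K1 cells stably expressing hERG; 30 nM–100 μM applied cumulatively to the same cell, ≤0.3% DMSO. Pulses: −80 mV holding, +20 mV for 300 ms, −50 mV for 300 ms tail, 0.3 Hz, 70 per concentration. Last-pulse AUC and peak, normalized to control, were fitted to a Hill equation for IC50.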
On the technique in general: hERG is a cardiac potassium channel; its block is linked to QT prolongation.

The mark [3] stands for this setting: Kv1.3 potassium channel, whole-cell patch clamp.
[4] abbreviates: hERG channel, whole-cell patch clamp.
Setting [5] is: CHO-K1 cells stably expressing Kv1.3, 100 ms pulses from -90 mV to +40 mV, 0.1 Hz.
[6] abbreviates: CHO-K1 cells stably expressing hERG, +20 mV 300 ms, -50 mV 300 ms tail current, 0.3 Hz.

T2 sequence (Q12809 whole entry): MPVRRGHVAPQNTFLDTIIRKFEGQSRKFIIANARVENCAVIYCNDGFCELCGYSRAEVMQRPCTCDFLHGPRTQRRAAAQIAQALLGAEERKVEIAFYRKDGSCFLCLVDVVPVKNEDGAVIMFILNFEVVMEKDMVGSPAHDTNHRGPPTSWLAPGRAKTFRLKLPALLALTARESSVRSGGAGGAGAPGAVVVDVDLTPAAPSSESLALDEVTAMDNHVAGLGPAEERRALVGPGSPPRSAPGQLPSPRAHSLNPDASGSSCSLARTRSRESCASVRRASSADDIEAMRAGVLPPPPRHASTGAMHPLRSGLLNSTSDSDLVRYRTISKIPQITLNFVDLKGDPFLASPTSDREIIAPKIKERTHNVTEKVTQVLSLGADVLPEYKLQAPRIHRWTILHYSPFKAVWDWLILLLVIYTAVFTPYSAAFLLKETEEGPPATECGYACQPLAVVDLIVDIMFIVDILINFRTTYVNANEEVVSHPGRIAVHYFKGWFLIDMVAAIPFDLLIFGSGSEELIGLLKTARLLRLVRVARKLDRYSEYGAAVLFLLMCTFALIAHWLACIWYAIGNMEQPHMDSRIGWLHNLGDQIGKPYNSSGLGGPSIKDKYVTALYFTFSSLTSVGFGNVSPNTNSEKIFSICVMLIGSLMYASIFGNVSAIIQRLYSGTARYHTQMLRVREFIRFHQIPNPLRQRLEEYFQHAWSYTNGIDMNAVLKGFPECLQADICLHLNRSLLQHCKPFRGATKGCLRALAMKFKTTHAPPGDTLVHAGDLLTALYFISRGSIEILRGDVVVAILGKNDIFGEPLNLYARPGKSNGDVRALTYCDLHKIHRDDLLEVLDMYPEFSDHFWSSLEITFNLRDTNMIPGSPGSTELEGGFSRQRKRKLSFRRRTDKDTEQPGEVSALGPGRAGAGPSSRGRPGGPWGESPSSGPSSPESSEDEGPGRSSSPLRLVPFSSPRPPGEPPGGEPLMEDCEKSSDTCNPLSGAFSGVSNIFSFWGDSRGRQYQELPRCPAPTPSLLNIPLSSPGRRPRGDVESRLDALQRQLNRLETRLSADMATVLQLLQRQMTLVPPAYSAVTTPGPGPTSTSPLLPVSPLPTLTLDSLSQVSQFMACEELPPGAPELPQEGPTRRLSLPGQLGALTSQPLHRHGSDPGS
T1 sequence (P22001 whole entry): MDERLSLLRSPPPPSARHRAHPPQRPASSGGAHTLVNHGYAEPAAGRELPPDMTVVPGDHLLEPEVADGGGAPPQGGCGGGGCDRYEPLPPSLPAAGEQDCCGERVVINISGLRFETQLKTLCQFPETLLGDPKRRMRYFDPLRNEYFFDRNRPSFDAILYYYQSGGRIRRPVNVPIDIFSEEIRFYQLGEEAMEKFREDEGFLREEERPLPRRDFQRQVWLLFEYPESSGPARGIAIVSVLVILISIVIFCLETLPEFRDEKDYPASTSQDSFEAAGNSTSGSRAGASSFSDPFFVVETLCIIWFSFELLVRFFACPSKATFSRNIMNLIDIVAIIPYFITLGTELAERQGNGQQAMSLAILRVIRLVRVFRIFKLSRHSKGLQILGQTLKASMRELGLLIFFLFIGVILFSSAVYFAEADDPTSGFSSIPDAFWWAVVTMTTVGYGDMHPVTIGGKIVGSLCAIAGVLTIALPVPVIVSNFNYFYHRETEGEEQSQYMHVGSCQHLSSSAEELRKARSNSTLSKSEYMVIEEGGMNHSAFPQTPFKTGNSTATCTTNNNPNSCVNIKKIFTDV

As to `C[C@H](O)[C@H](CO)N1CC(=O)N2C[C@@H](c3c(O)ccc(Cl)c3Cl)C[C@H]2C1` (relative stereo) [Compound 165, (7R,8aS)-7-(2,3-dichloro-6-hydroxyphenyl)-2-[(2S,3S)-rel-1,3-dihydroxybutan-2-yl]-hexahydropyrrolo[1,2-a]pyrazin-4-one], the IC50 – broadly, the midpoint of a concentration-inhibition curve – in test [1] (setting [3]) was < 1 µM; in test [2] (setting [4]) it was > 30 µM.

For `O=C1C[C@H](c2cn[nH]c2)C[C@@H]2C[C@H](c3c(O)ccc(Cl)c3Cl)CN12` (single isomer, unassigned) [Compound 216], the figures for the IC50 in test [1] (setting [3]) and in test [2] (setting [4]) were < 1 µM and < 10 µM, respectively.

Take `O=C1C[C@H](N2CC[C@@H](O)C2)C[C@@H]2C[C@H](c3c(O)ccc(Cl)c3Cl)CN12` (single isomer, unassigned) [Compound 191]: the IC50 in test [1] (setting [3]) is < 1 µM; in test [2] (setting [4]), < 30 µM.

Turning to `C[C@@H]1CC(=O)N2C[C@@H](c3c(O)ccc(Cl)c3Cl)C[C@H]2CN1C(=O)CO` [Compound 93, (3R,8R,9aS)-8-(2,3-dichloro-6-hydroxyphenyl)-2-(2-hydroxyacetyl)-3-methyl-hexahydro-1H-pyrrolo[1,2-a][1,4]diazepin-5-one], the IC50 in test [1] (setting [3]) is < 1 µM; in test [2] (setting [4]) it was < 30 µM.

On to `C[C@@]1(CO)OC(=O)N2C[C@@H](c3c(O)ccc(Cl)c3Cl)C[C@H]21` (single isomer, unassigned) [Compound 265], for which the IC50 in test [1] (setting [3]) is < 1 µM; in test [2] (setting [4]), > 30 µM.

Turning to `O=C1CN(C[C@@H]2CNCCO2)C[C@@H]2C[C@H](c3c(O)ccc(Cl)c3Cl)CN12` [Compound 146, (7R,8aS)-7-(2,3-dichloro-6-hydroxyphenyl)-2-[(2S)-morpholin-2-ylmethyl]-hexahydropyrrolo [1,2-a]pyrazin-4-one], the 50% inhibitory concentration (IC50) in test [1] (setting [3]) was < 1 µM; in test [2] (setting [4]), > 30 µM.

As to `O=C(CCO)N1CC(=O)N2C[C@@H](c3c(O)ccc(Cl)c3Cl)C[C@H]2C1` [Compound 17, (7R,8aS)-7-(2,3-dichloro-6-hydroxyphenyl)-2-(3-hydroxypropanoyl)hexa-hydropyrrolo[1,2-a]pyrazin-4(1H)-one], the IC50 was < 1 µM in test [1] (setting [5]) and > 30 µM in test [2] (setting [6]).

As to `O=C([C@H](O)CO)N1CC(=O)N2C[C@@H](c3c(O)ccc(Cl)c3Cl)C[C@H]2C1` [Compound 42, (7R,8aS)-7-(2,3-dichloro-6-hydroxyphenyl)-2-((R)-2,3-dihydroxypropanoyl) hexahydropyrrolo[1,2-a]pyrazin-4(1H)-one], the concentration for half-maximal inhibition (IC50) in test [1] (setting [5]) was < 1 µM; in test [2] (setting [6]), > 30 µM.

In the case of `O=C1O[C@H](CN2CCOCC2)[C@@H]2C[C@H](c3c(O)ccc(Cl)c3Cl)CN12` (single isomer, unassigned) [Compound 285], the IC50 in test [1] (setting [3]) is < 1 µM; in test [2] (setting [4]), > 30 µM.

Take `O=C1CN([C@@H]2C[C@@H](O)[C@@H](O)C2)C[C@@H]2C[C@H](c3c(O)ccc(Cl)c3Cl)CN12` (relative stereo) [Compound 131, (7R,8aS)-7-(2,3-dichloro-6-hydroxyphenyl)-2-[(1S,3R,4S)-rel-3,4-dihydroxycyclopentyl]-hexahydropyrrolo [1,2-a]pyrazin-4-one]: the results for the IC50 in test [1] (setting [3]) and in test [2] (setting [4]) were < 1 µM and > 30 µM, respectively.

For `O=C(CO)N1CC(=O)N2CC[C@@H](c3c(O)cc(Cl)c(Cl)c3Cl)C[C@H]2C1` [Compound 38, (8R,9aS)-2-(2-hydroxyacetyl)-8-(2,3,4-trichloro-6-hydroxyphenyl)octahydro-4H-pyrido[1,2-a]pyrazin-4-one], the figures for the IC50 in test [1] (setting [5]) and in test [2] (setting [6]) were < 1 µM and > 30 µM, respectively.

Regarding `CC(=O)NCC1OC(=O)N2C[C@@H](c3c(O)ccc(Cl)c3Cl)C[C@@H]12` (stereo partly drawn) [Compound 276, N-[[(6R,7aS)-6-(2,3-dichloro-6-hydroxyphenyl)-3-oxo-tetrahydro-1H-pyrrolo[1,2-c][1,3]oxazol-1-yl]methyl]acetamide], the IC50 in test [1] (setting [3]) was < 1 µM; in test [2] (setting [4]), > 30 µM.

As for `COC[C@H](CO)N1CC(=O)N2C[C@@H](c3c(O)ccc(Cl)c3Cl)C[C@H]2C1` (single isomer, unassigned) [Compound 118], the IC50 was < 1 µM in test [1] (setting [3]) and > 30 µM in test [2] (setting [4]).

With `O=C1CC(N2CCNCC2)C[C@@H]2C[C@H](c3c(O)ccc(Cl)c3Cl)CN12` (single isomer, unassigned) [Compound 207], the figures for the IC50 in test [1] (setting [3]) and in test [2] (setting [4]) were < 1 µM and > 30 µM, respectively.

For `O=C([C@@H](O)CO)N1CC(=O)N2CC[C@H](c3c(O)ccc(Cl)c3Cl)C[C@@H]2C1` [Compound 64, (8S,9aR)-8-(2,3-dichloro-6-hydroxyphenyl)-2-[(2S)-2,3-dihydroxy-propanoyl]-hexahydro-1H-pyrido[1,2-a]pyrazin-4-one], the IC50 is < 1 µM in test [1] (setting [3]) and > 30 µM in test [2] (setting [4]).

For `O=C1CN(C(CO)CO)C[C@@H]2C[C@H](c3c(O)ccc(Cl)c3Cl)CN12` [Compound 124, (7R,8aS)-7-(2,3-dichloro-6-hydroxyphenyl)-2-(1,3-dihydroxypropan-2-yl)-hexahydropyrrolo [1,2-a]pyrazin-4-one], the IC50 is < 1 µM in test [1] (setting [3]) and > 30 µM in test [2] (setting [4]).

As to `C[C@H](O)CC(=O)N1CC(=O)N2C[C@@H](c3c(O)ccc(Cl)c3Cl)C[C@H]2C1` [Compound 59, (7R,8aS)-7-(2,3-dichloro-6-hydroxyphenyl)-2-[(3S)-3-hydroxybutanoyl]-hexahydropyrrolo[1,2-a]pyrazin-4-one], the figures for the concentration for half-maximal inhibition (IC50) in test [1] (setting [5]) and in test [2] (setting [6]) were < 1 µM and > 30 µM, respectively.

On to `CNCC1OC[C@@H]2C[C@H](c3c(O)ccc(Cl)c3Cl)CCN2C1=O` (stereo partly drawn) [Compound 182, (8R,9aS)-8-(2,3-dichloro-6-hydroxyphenyl)-3-[(methylamino)methyl]-hexahydro-1H-pyrido[2,1-c][1,4]oxazin-4-one], for which the IC50 in test [1] (setting [3]) was < 1 µM; in test [2] (setting [4]) it was < 30 µM.

For the compound `N[C@H]1CC2C[C@H](c3c(O)ccc(Cl)c3Cl)CN2C1=O` (single isomer, unassigned) [Compound 248], the IC50 is < 1 µM in test [1] (setting [3]) and < 10 µM in test [2] (setting [4]).

Turning to `O=C1CN(C[C@H]2COCCN2)C[C@@H]2C[C@H](c3c(O)ccc(Cl)c3Cl)CN12` [Compound 145, (7R,8aS)-7-(2,3-dichloro-6-hydroxyphenyl)-2-[(3S)-morpholin-3-ylmethyl]-hexahydropyrrolo [1,2-a]pyrazin-4-one], the IC50 in test [1] (setting [3]) is < 1 µM; in test [2] (setting [4]) it was < 30 µM.

Consider `O=C(C[C@@H](O)C1CC1)N1CC(=O)N2C[C@@H](c3c(O)ccc(Cl)c3Cl)C[C@H]2C1` [Compound 72, (7R,8aS)-2-[(3R)-3-cyclopropyl-3-hydroxypropanoyl]-7-(2,3-dichloro-6-hydroxyphenyl)-hexahydropyrrolo [1,2-a]pyrazin-4-one], for which the IC50 in test [1] (setting [3]) was < 1 µM; in test [2] (setting [4]) it was < 30 µM.

As to `O=C([C@@H]1OCC[C@@H]1O)N1CC(=O)N2C[C@@H](c3c(O)ccc(Cl)c3Cl)C[C@H]2C1` [Compound 74, (7R,8aS)-7-(2,3-dichloro-6-hydroxyphenyl)-2-[(2R,3S)-3-hydroxyoxolane-2-carbonyl]-hexahydropyrrolo [1,2-a]pyrazin-4-one], the IC50 is < 1 µM in test [1] (setting [3]) and > 30 µM in test [2] (setting [4]).

For `COC[C@@H](O)CN1CC(=O)N2C[C@@H](c3c(O)ccc(Cl)c3Cl)C[C@H]2C1` (single isomer, unassigned; isomer 1) [Compound 152], the IC50 in test [1] (setting [3]) was < 1 µM; in test [2] (setting [4]) it was < 30 µM.

`O=C1O[C@H]([C@H](O)CO)[C@@H]2C[C@H](c3c(O)ccc(Cl)c3Cl)CN12` (single isomer, unassigned) [Compound 263]: the IC50 was < 1 µM in test [1] (setting [3]) and > 30 µM in test [2] (setting [4]).

With `CCO[C@H](CO)C(=O)N1CC(=O)N2C[C@@H](c3c(O)ccc(Cl)c3Cl)C[C@H]2C1` [Compound 66, (7R,8aS)-7-(2,3-dichloro-6-hydroxyphenyl)-2-[(2R)-2-ethoxy-3-hydroxypropanoyl]-hexahydropyrrolo[1,2-a]pyrazin-4-one], the values for the IC50 in test [1] (setting [3]) and in test [2] (setting [4]) were < 1 µM and > 30 µM, respectively.

In the case of `O=C1CC(O)(CO)C[C@@H]2C[C@H](c3c(O)ccc(Cl)c3Cl)CN12` (stereo partly drawn) [Compound 220, (2R,8aS)-2-(2,3-dichloro-6-hydroxyphenyl)-7-hydroxy-7-(hydroxymethyl)-hexahydroindolizin-5-one], the IC50 was < 1 µM in test [1] (setting [3]) and > 30 µM in test [2] (setting [4]).

With `C[C@H]1CC(=O)N2C[C@@H](c3c(O)ccc(Cl)c3Cl)C[C@H]2CN1C(=O)CO` [Compound 94, (3S,8R,9aS)-8-(2,3-dichloro-6-hydroxyphenyl)-2-(2-hydroxyacetyl)-3-methyl-hexahydro-1H-pyrrolo[1,2-a][1,4]diazepin-5-one], the IC50 in test [1] (setting [3]) is < 1 µM; in test [2] (setting [4]), > 30 µM.

`O=C(NCCO)[C@@H]1CC(=O)N2C[C@@H](c3c(O)ccc(Cl)c3Cl)C[C@H]2C1` (single isomer, unassigned) [Compound 234]: the IC50 is < 1 µM in test [1] (setting [3]) and > 30 µM in test [2] (setting [4]).

Regarding `CC[C@H](O)C(=O)N1CC(=O)N2CC[C@@H](c3c(O)ccc(Cl)c3Cl)C[C@H]2C1` [Compound 9, (8R,9aS)-8-(2,3-dichloro-6-hydroxyphenyl)-2-[(2S)-2-hydroxybutanoyl]-hexahydro-1H-pyrido[1,2-a]pyrazin-4-one], the IC50 in test [1] (setting [5]) is < 1 µM; in test [2] (setting [6]), > 30 µM.
